Reference: patent publication US5026687A (priority 1990, dated 1991)
Entries after “also recorded” stand apart in the source; their conditions may differ.

What was measured:
[1] = test system: HIV (cytopathic effect, ATH8 T cell line); experiment: Protection of ATH8 T cell line against cytopathic effect of HIV (synergy of combinations); assay type: cell-based, human immunodeficiency virus; settings: in vitro
[2] = Conversion of 2',3'-dideoxyadenosine in patients; assay type: in vivo, human
Excerpt: In addition to the 37 patients mentioned above, another 20 patients have been treated for a total of 57.

[3] = beagle dog; previously shown; cited from earlier work
[4] = test system: patients with AIDS or AIDS-related complex; experiment: Immune parameters (circulating CD4+, CD8+, total lymphocytes, CD4+:CD8+ ratio) in treated patients; assay type: in vivo, human
HIV = experiment: Serum HIV p24 antigen and HIV load in treated patients; assay type: in vivo
anergic patients = experiment: Cutaneous delayed type hypersensitivity reaction (skin test reactivity) of anergic patients; assay type: in vivo, human
[5] = test system: patients with AIDS or AIDS-related complex; experiment: Clinical improvement (well being, energy, weight, duration of benefit) in treated patients; assay type: in vivo, human
Excerpt: Other patients had fatigue, loss of appetite, fevers, or recent weight loss. Many of these patients could not tolerate therapy with 3'-azido-2',3'-dideoxythymidine (AZT, zidovudine) because of nausea, malaise, or bone marrow toxicity, or were clinically deteriorating while on AZT treatment.

HIV-infected patients = experiment: Combination therapy of patients with 2',3'-dideoxyinosine and other agents; assay type: in vivo, human
Excerpt: Examples of such therapies are disclosed in the following examples.
These two drugs are alternated in this manner about week-by-week for about one year. […] These two drugs are alternated about week-by-week for about 6 months.

[6] = human, in vivo
[7] = human, in vivo; remark: listed apart in the source
[8] = human, in vivo; remark: listed apart in the source
retroviral replication = settings: cited from earlier work
clinical = settings: human, in vivo, iv, 3.2 mg/kg
[9] = test system: human immunodeficiency virus-associated neurological dysfunction; experiment: Cognitive function in patients with HIV-associated neurological dysfunction
[10] = even low doses, after patient has developed pancreatitis; cited from earlier work
[11] = test system: patients with HIV infection; settings: in vivo; cited from earlier work
HIV p24 gag production = settings: with 2',3'-dideoxyinosine, T-cell line
[12] = about 1 to 7 mg/kg/day intravenously then about 2 to 14 mg/kg/day orally
[13] = patients with HIV infection, intravenous or oral
[14] = with gancyclovir about 500 mg/day iv, 2 weeks

Nc1ccn([C@H]2CC[C@@H](CO)O2)c(=O)n1 [2',3'-Dideoxycytidine]
synergy with 2',3'-dideoxyinosine, protection of ATH8 against cytopathic effect of HIV [1]: synergistic

Nc1ncnc2c1ncn2[C@H]1CC[C@@H](CO)O1 [2',3'-dideoxyadenosine]
conversion to 2',3'-dideoxyinosine [2]: rapidly converted to 2',3'-dideoxyinosine
oral bioavailability [3]: can be orally bioavailable

OC[C@@H]1CC[C@H](n2cnc3c(O)ncnc32)O1 [2',3'-dideoxyinosine]
patients still having increases in circulating CD4+ lymphocytes ([4]; 3.2 to 4.8 mg/kg/day iv about 2 weeks, then about 6.4 to 9.6 mg/kg/day orally, about one year): 4 of the first 7 patients
number of circulating CD4+ lymphocytes (change) [4, 12]: substantial increases in the number of circulating CD4+ lymphocytes
number of circulating CD8+ lymphocytes (change) [4, 12]: increases in the number of circulating CD8+ lymphocytes
number of circulating total lymphocytes (change) [4, 12]: increases in the number of circulating total lymphocytes
time within which lymphocyte changes were observed ([4]; about 2 to 14 mg/kg/day orally after intravenous, within about): ≤ 2 weeks
immune parameters improvement ([4]; below 2 mg/kg/day orally): not as consistently seen
duration of lymphocyte changes ([4]; in many cases, about 2 to 14 mg/kg/day orally): at least one
immune function ([4]; intravenous or oral route, long periods of time): improvement in immune function
immune parameters improvement ([4]; more than 14 mg/kg/day orally, some patients): improvements in immune parameters
CD4+ lymphocytes after treatment ([4]; one patient, baseline about 31, 1.6 mg/kg/day iv about 2 weeks, then oral 3.2 (10 weeks), 4.8 (21 weeks), 9.6 mg/kg/day (31 weeks)): about 90 CD4+ lymphocytes/mm^3
CD4+ increases by prior AZT therapy ([4]; patients who had previously received 4 months or less of AZT): most consistently seen
number of circulating CD4+ lymphocytes (change) [4, 13]: an increase in the number of circulating CD4+ lymphocytes; also recorded: increases in their circulating CD4+ cells
number of circulating CD8+ lymphocytes (change) [4, 13]: an increase in the number of CD8+ lymphocytes; also recorded: increases in the number of CD8+ lymphocytes
number of circulating total lymphocytes (change) [4, 13]: an increase in the number of circulating total lymphocytes; also recorded: increases in the number of total lymphocytes
CD8+ lymphocytes after treatment ([4]; same first patient, baseline 189): about 302 CD8+ lymphocytes/mm^3
total lymphocytes after treatment ([4]; same first patient, baseline 405): about 816 total lymphocytes/mm^3
CD8+ lymphocytes after treatment ([4]; second patient, baseline 844, about one year): about 1256 CD8+ lymphocytes/mm^3
total lymphocytes after treatment ([4]; second patient, baseline 1270, about one year): about 1794 total lymphocytes/mm^3
CD4+ lymphocytes after treatment ([4]; second patient, baseline about 219, 4.8 mg/kg/day iv about 2 weeks then 9.6 mg/kg/day oral, about one year): about 359 CD4+ lymphocytes/mm^3
replication of HIV (HIV; 35 evaluable patients): a decrease in the replication in their HIV
patients with no detectable serum HIV p24 antigen (HIV; after about one year, about 6.4 to 9.6 mg/kg/day oral): two
serum HIV p24 antigen (change) (HIV; by week 6, about 1 to 7 mg/kg/day iv then about 2 to 14 mg/kg/day orally, patients with detectable p24): substantial decreases in their serum HIV p24 antigen
patients with decline in serum HIV p24 antigen (HIV; first 6 weeks, about 6.4 to 9.6 mg/kg/day orally, 3 patients with detectable p24 before therapy): All 3 had a decline
reduction of p24 antigen detectable in serum (HIV; intravenous or oral route): a reduction of the amount of p24 antigen
serum HIV p24 antigen in patients viremic in the face of AZT (HIV; patients viremic in the face of AZT therapy): a fall in serum HIV p24 antigen
load of HIV in circulating lymphocytes by polymerase chain reaction (HIV; while receiving 2',3'-dideoxyinosine): a decrease in the load of HIV in their circulating lymphocytes
anergic patients developing skin test reactivity to at least one test antigen (anergic patients; after approximately 6 weeks of therapy): 7 of these 23 (anergic patients
cutaneous delayed type hypersensitivity reaction of anergic patients (anergic patients; some patients): regained the ability to mount a cutaneous delayed type hypersensitivity reaction to at least one test antigen
clinical improvement ([5]; 35 evaluable patients): clinical improvement
patients reporting an improvement in well being ([5]; 37 patients, increase in energy, decreased sleep requirements, or increased appetite): approximately one half of the 37 patients
patients in whom the beneficial changes were seen ([5]; about 2 to 14 mg/kg/day orally with buffers or antacid): nearly all of the patients
persistence of clinical improvements ([5]; about 2 to about 14 mg/kg/day orally with antiacids or buffers): can persist over at least a year's period of time
average weight gain ([5]; first 6 weeks of therapy): 1.5 kg
energy (change) ([5]; intravenous or oral route): an increase in energy
weight (change) ([5]; intravenous or oral route): an increase in weight
synergy with dextran sulfate, protection of ATH8 against cytopathic effect of HIV ([1]; with dextran sulfate): synergistic
outcome of combination with AZT (HIV-infected patients; AZT 300 mg/day with ddI 3.2 mg/kg/day, or AZT 600 mg/day alternating weekly with ddI 6.4 mg/kg/day, about one year): Beneficial effects are seen
outcome of combination with ddC (HIV-infected patients; ddC 0.015 mg/kg/day with ddI 3.2 mg/kg/day, or ddC 0.03 mg/day alternating weekly with ddI 6.4 mg/kg/day, about 6 months): Beneficial effects are seen
outcome of combination with ribavirin (HIV-infected patients; ddI 3.2 mg/kg/day orally, ribavirin 100 to 2400 mg/day orally, about 6 months): Beneficial effects are seen
clinical course with pentamidine prophylaxis (HIV-infected patients; ddI 4.8 mg/kg/day iv 2 weeks then 9.6 mg/kg/day orally 56 weeks, 300 mg pentamidine isothionate inhaled monthly): clinically did well
outcome of combination with dextran sulfate (HIV-infected patients; ddI 6.4 mg/kg/day orally, dextran sulfate 2700 mg/day iv, about 6 months): Beneficial effects are seen
outcome of combination with rCD4 (HIV-infected patients; ddI 6.4 mg/kg/day orally, rCD4 300 μg/kg/day iv, 1 year): Beneficial effects are seen
outcome of combination with interferon alpha (HIV-infected patients; ddI 1 to 14 mg/kg/day orally with 0.5 to 10 million units interferon alpha daily, about 3 months, Kaposi's sarcoma): Beneficial effects are seen
outcome of combination with IL-2 (HIV-infected patients; ddI 1 to 14 mg/kg/day orally with 25,000 to 1 million U/day IL-2, about 3 months): Beneficial effects are seen
development of Pneumocystis carinii pneumonia (HIV-infected patients; with 300 mg pentamidine isothionate inhaled monthly, about 56 weeks): did not develop Pneumocystis carinii pneumonia
recurrence of cytomegalovirus retinitis (HIV-infected patients; with acyclovir 4800 mg/day, 4 weeks): the retinitis has not recurred
increase in weight (HIV-infected patients; [14]): about 2.2 kg
recurrence of cytomegalovirus retinitis (HIV-infected patients; [14]): has not had a recurrence of the retinitis
patient's report (HIV-infected patients; with gancyclovir about 500 mg/day iv, ddI 6.4 mg/kg/day orally, 2 weeks): reports feeling better
oral absorption and pharmacokinetics on chronic administration (chronic oral administration in a given person): remain fairly constant
oral absorption, non-fasting (oral, patient not in a fasting state): effectively absorbed
cumulative dose exceeded without neuropathy appearing [6]: > 1.5 gm/kg
neuropathy after prompt stopping in warning phase [6]: the neuropathy subsided
pancreatitis [7]: can definitely cause pancreatitis
time for amylase to return to about normal [7]: about one
evidence of pancreatitis after restart ([7]; 6.4 mg/kg/day): no evidence of pancreatitis
recurrence of pancreatitis after restart ([7]; po, 6.4 mg/kg/day): did not recur
serum amylase after restart ([7]; po, 6.4 mg/kg/day): 80 U/liter
clinical symptoms of pancreatitis ([7]; po, 9.6 mg/kg/day): no clinical symptoms of pancreatitis
hepatitis after discontinuation [8]: the hepatitis resolved
recurrence of hepatitis after restart ([8]; po, 6.4 mg/kg/day): did not recur
suppression of retroviral replication (retroviral replication): known to suppress retroviral replication
Cmax (clinical): ~10 µM
half-life (clinical): ~40 min
patients with improved cognitive function ([9]; 6 to 10 weeks of therapy, memory, speed and precision of doing tasks): 4 patients
cognitive dysfunction associated with HIV infection ([9]; intravenous or oral route): an improvement in cognitive dysfunction
memory quotient ([9]; one patient, about 9.6 mg/kg/day orally in 3 doses, from 111, after 6 weeks): 121

Sc1ncnc2nc[nH]c12 [6-mercaptopurine]
pancreatitis on re-administration [10]: causes pancreatitis that returns acutely

Cc1cn([C@H]2C[C@H](N=[N+]=[N-])[C@@H](CO)O2)c(=O)[nH]c1=O [AZT, 3'-azido-2',3'-dideoxythymidine]
synergy with 2',3'-dideoxyinosine, protection of ATH8 against cytopathic effect of HIV [1]: synergistic
hepatic dysfunction [11]: can cause hepatic dysfunction
pancreatitis or peripheral neuropathy [11]: not known to cause pancreatitis or a peripheral neuropathy
toxicities and side effects [11]: anemia, other bone marrow suppression, and certain other toxicities such as myositis (muscle destruction or inflammation), headaches, nausea, vomiting, malaise, or seizures

NC(=O)c1ncn([C@@H]2O[C@H](CO)[C@@H](O)[C@H]2O)n1 [Ribavirin]
effect on the anti-HIV effect of 2',3'-dideoxyinosine (HIV p24 gag production) (HIV p24 gag production): induce enhancement of the anti-HIV effect
